{"source": "patent US20190160131A1", "about": "“METHOD FOR CELL REJUVENATION USING ROSA ROXBURGHII FRUIT EXTRACTS” (TCI CO., LTD, priority 2017, published 2019)", "tested_on": "human skin fibroblast CCD-966SK", "assay": "Chemical (etoposide)-induced telomere shortening, telomere length by qPCR", "type": "cell-based", "conditions": "30 μM etoposide only, 5 days of incubation, compared to control cells (FIG. 8)", "method": "Telomere length is determined based on qPCR technique. First, genomic DNA samples were extracted from cells. Next, the genomic DNA samples (20 ng) were subjected to qPCR to obtain melting curves. The qPCR was performed with a PCR thermocycler using KAPA CYBR FAST qPCR Kit (2×) (KAPA Biosystems) and primers of the telomere and the single-copy 36B4 gene (Table 2). In addition, serially diluted standards of the telomere (10- to 10^6-fold dilutions starting from 60 pg) and the 36B4 gene (10- to 10^6-fold dilutions starting from 200 pg) were prepared and subjected to qPCR under the following reaction conditions to obtain standard curves (Ct/kb): a denaturation phase at 95° C. for 10 minutes followed by 40 cycles of denaturation (95° C.) for 15 seconds and annealing (60° C.) for 1 minute. The telomere standard was an oligonucleotide having 14 repeats of TTAGGG (SEQ ID NO: 7); the standard of 36B4 gene had the nucleotide sequence of SEQ ID NO:8. Lastly, the average length of telomere in the genomic DNA samples was determined from the aforementioned standard curves and the cycle threshold values of telomere and 36B4 gene in the genomic DNA samples.\nThe protective effect of Rosa roxburghii fruit water extract on chromosomal telomere was investigated in human skin fibroblast CCD-966SK. […]", "data": [{"molecule": "COc1cc([C@@H]2c3cc4c(cc3[C@@H](O[C@@H]3O[C@@H]5CO[C@@H](C)O[C@H]5[C@H](O)[C@H]3O)[C@H]3COC(=O)[C@H]23)OCO4)cc(OC)c1O", "note": "[etoposide]", "values": [{"measurement": "relative length of telomeres", "result": "significantly shortened"}]}]}
